{"source": "patent US20240390464A1", "about": "“Treatment of Adults With Overweight or Obesity With or Without Weight-Related Comorbidities” (Carmot Therapeutics Inc., priority 2023, published 2024)", "key": {"[1]": {"test": "Phase 1 MD Cohorts 11 and 12: pharmacokinetics", "conditions": "human, in vivo, SC QW", "description": "The secondary objectives of this study are: • To evaluate the pharmacokinetics of CT-388 across 12 consecutive weekly doses for Cohorts 11 and 14 (and additionally, up to 24 weeks for Cohorts 12 and 13); and • To evaluate the PD effect of CT-388 across 12 consecutive weekly doses for Cohorts 11 and 14 (and additionally up to 24 weeks for Cohorts 12 and 13) on body weight and glucose homeostasis in both the fasted state and in the setting of an OGTT in participants with or without T2DM. […] Cohorts 11 and 12 included participants who were obese without T2DM and cohort 13 included patients who were obese with T2DM. Endpoints of this study were safety, including TEAEs, labs, vitals and ECGs; PK, including CT-388 PK concentrations and parameters; and key PD endpoints, including week 12 ([…]) and week 24 ([…]): • a. body weight: % change; absolute change; • b. change in HbA1c, fasting glucose, fasting insulin, HOMA-IR; and • c. waist and hip circumference."}, "[2]": {"test": "chronic toxicology, repeat dosing 39 weeks", "format": "in vivo", "conditions": "monkeys", "description": "(§1) Thus, CT-388 can be a potent drug that induces significant weight loss and helps achieve optimal glycemic control, with acceptable tolerability, in overweight or obese adults with or without T2DM or other weight-related comorbidities. CT-388 can potentially be used as a non-invasive alternative to bariatric surgery for weight management."}, "[3]": {"test": "Phase 1 SAD Cohorts 1-5: pharmacokinetics", "conditions": "human, in vivo; for Vd/F: read-out: Vz/F", "method": "The secondary objectives are: • To evaluate the pharmacokinetics of single-ascending doses of CT-388 in otherwise healthy overweight and obese adult participants; and • To evaluate the pharmacodynamic (PD) effect of a single dose of CT-388 on body weight and glucose homeostasis in both the fasted state and in the setting of a mixed meal tolerance test (MMTT) challenge in otherwise healthy overweight and obese adult participants.\n• Cohort 1: One dose containing 0.5 mg of CT-388 or matched placebo administered subcutaneously in the abdomen • Cohort 2: One dose containing 2.0 mg of CT-388 or matched placebo administered subcutaneously in the abdomen • Cohort 3: One dose containing 5.0 mg of CT-388 or matched placebo administered subcutaneously in the abdomen • Cohort 4: One dose containing 7.5 mg of CT-388 or matched placebo administered subcutaneously in the abdomen • Cohort 5: One dose containing 6.0 mg of CT-388 or matched placebo administered subcutaneously in the abdomen\nTime-concentration profiles following a single dose SC administration of CT-388 to participants in Cohort 1 (0.5 mg), Cohort 2 (2 mg), Cohort 3 (5 mg), Cohort 4 (7.5 mg) and Cohort 5 (6 mg) are shown in Table 8 below."}, "[4]": {"test": "chronic toxicology, repeat dosing 26 weeks", "format": "in vivo", "conditions": "rats", "description": "as §1"}, "[5]": {"conditions": "Cohort 1, single SC dose 0.5 mg, mean ± standard deviation"}, "[6]": {"conditions": "Cohort 2, single SC dose 2 mg, mean ± standard deviation"}, "[7]": {"conditions": "Cohort 3, single SC dose 5 mg, mean ± standard deviation"}, "[8]": {"conditions": "Cohort 4, single SC dose 7.5 mg, mean ± standard deviation"}, "[9]": {"conditions": "Cohort 5, single SC dose 6 mg, mean ± standard deviation"}}, "note": "Where two headings read alike, the source gives them in different places. Numbered stars: 1 amine (or outer) side, 2 acyl side, 3 side chain; on linkers, the order of the positions; unused ones are H or OH. Square brackets hold non-standard residues; d marks the D form. Side chains are listed from the residue outwards. Peptide text beside a SMILES is read from it. * marks the point of attachment. Isobutyryl(2-(3-CN-5-F-Ph)) = CC(C)(C(=O)*)c1cc(F)cc(C#N)c1; C20 diacid = O=C(O)CCCCCCCCCCCCCCCCCCC(=O)*; γGlu = O=C(O)[C@H](CCC(=O)[*:2])N[*:1]; AEEA = NCCOCCOCC(=O)O; Aib = CC(C)(N)C(=O)O; βAla = NCCC(=O)O", "data": [{"molecule": "CC[C@H](C)[C@H](NC(=O)[C@H](CC(C)C)NC(=O)[C@H](Cc1c[nH]c2ccccc12)NC(=O)[C@H](CCC(N)=O)NC(=O)[C@@H](NC(=O)[C@H](Cc1ccccc1)NC(=O)[C@H](C)NC(=O)[C@H](CCCCNC(=O)COCCOCCNC(=O)COCCOCCNC(=O)CC[C@H](NC(=O)CCCCCCCCCCCCCCCCCCC(=O)O)C(=O)O)NC(=O)[C@H](CCC(N)=O)NC(=O)[C@H](C)NC(=O)[C@@H](NC(=O)[C@H](CCCCN)NC(=O)[C@H](CC(=O)O)NC(=O)[C@H](CC(C)C)NC(=O)C(C)(C)NC(=O)[C@@H](NC(=O)[C@H](CO)NC(=O)[C@H](Cc1ccc(O)cc1)NC(=O)[C@H](CC(=O)O)NC(=O)[C@H](CO)NC(=O)[C@@H](NC(=O)[C@H](Cc1ccccc1)NC(=O)[C@@H](NC(=O)CNC(=O)[C@H](CCC(=O)O)NC(=O)CCNC(=O)C(C)(C)c1cc(F)cc(C#N)c1)[C@@H](C)O)[C@@H](C)O)[C@@H](C)CC)[C@@H](C)CC)C(C)C)C(=O)N[C@@H](C)C(=O)NCC(=O)NCC(=O)N1CCC[C@H]1C(=O)N[C@@H](CO)C(=O)N[C@@H](CO)C(=O)NCC(=O)N[C@@H](C)C(=O)N1CCC[C@H]1C(=O)N1CCC[C@H]1C(=O)N1CCC[C@H]1C(=O)N[C@@H](CO)C(N)=O", "note": "[CT-388] ({Isobutyryl(2-(3-CN-5-F-Ph))-βAla}-EGTFTSDYSI[Aib]LDKIAQK([AEEA-AEEA-γGlu-C20 diacid])AFVQWLIAGGPSSGAPPPS-NH2)", "values": [{"measurement": "half-life", "setting": "[1]", "value": "~150", "unit": "h"}, {"measurement": "tolerated dosing exceeds the pharmacologically active dose", "setting": "[2]; 39-weeks", "value": 100, "unit": "fold"}, {"measurement": "tolerability, chronic toxicology", "setting": "[2]; repeat dosing over 39-weeks", "value": "well tolerated"}, {"measurement": "AUC(0-inf)", "setting": "[3]; [5]", "value": "12900 ± 1090", "unit": "ng·h/mL"}, {"measurement": "CL/F", "setting": "[3]; [5]", "value": 0.65, "unit": "mL/min"}, {"measurement": "Cmax", "setting": "[3]; [5]", "value": "52.4 ± 10", "unit": "ng/mL"}, {"measurement": "MRT last", "setting": "[3]; [5]", "value": "128 ± 8.2", "unit": "h"}, {"measurement": "Vd/F", "setting": "[3]; [5]", "value": "5.8 ± 0.7", "unit": "L"}, {"measurement": "half-life", "setting": "[3]; Cohort 1, single SC dose 0.5 mg, range of minimum to maximum, read-out: t1/2 range", "value": "91.9 to 171", "unit": "h"}, {"measurement": "AUC(0-inf)", "setting": "[3]; [6]", "value": "47400 ± 10600", "unit": "ng·h/mL"}, {"measurement": "CL/F", "setting": "[3]; [6]", "value": 0.733, "unit": "mL/min"}, {"measurement": "Cmax", "setting": "[3]; [6]", "value": "216 ± 51.4", "unit": "ng/mL"}, {"measurement": "MRT last", "setting": "[3]; [6]", "value": "122 ± 5.6", "unit": "h"}, {"measurement": "Vd/F", "setting": "[3]; [6]", "value": "7.7 ± 1.8", "unit": "L"}, {"measurement": "half-life", "setting": "[3]; Cohort 2, single SC dose 2 mg, range of minimum to maximum, read-out: t1/2 range", "value": "108 to 142", "unit": "h"}, {"measurement": "CL/F", "setting": "[3]; Cohort 3, single SC dose 5 mg, mean", "value": 0.64, "unit": "mL/min"}, {"measurement": "AUC(0-inf)", "setting": "[3]; [7]", "value": "140000 ± 41700", "unit": "ng·h/mL"}, {"measurement": "Cmax", "setting": "[3]; [7]", "value": "831 ± 263", "unit": "ng/mL"}, {"measurement": "MRT last", "setting": "[3]; [7]", "value": "114 ± 2.3", "unit": "h"}, {"measurement": "Vd/F", "setting": "[3]; [7]", "value": "6.8 ± 2.1", "unit": "L"}, {"measurement": "half-life", "setting": "[3]; Cohort 3, single SC dose 5 mg, range of minimum to maximum, read-out: t1/2 range", "value": "108 to 146", "unit": "h"}, {"measurement": "CL/F", "setting": "[3]; Cohort 4, single SC dose 7.5 mg, mean", "value": 0.547, "unit": "mL/min"}, {"measurement": "AUC(0-inf)", "setting": "[3]; [8]", "value": "235000 ± 39000", "unit": "ng·h/mL"}, {"measurement": "Cmax", "setting": "[3]; [8]", "value": "1160 ± 110", "unit": "ng/mL"}, {"measurement": "MRT last", "setting": "[3]; [8]", "value": "119 ± 5.3", "unit": "h"}, {"measurement": "Vd/F", "setting": "[3]; [8]", "value": "6.6 ± 1.3", "unit": "L"}, {"measurement": "half-life", "setting": "[3]; Cohort 4, single SC dose 7.5 mg, range of minimum to maximum, read-out: t1/2 range", "value": "117 to 151", "unit": "h"}, {"measurement": "AUC(0-inf)", "setting": "[3]; [9]", "value": "100000 ± 15000", "unit": "ng·h/mL"}, {"measurement": "CL/F", "setting": "[3]; [9]", "value": 0.99, "unit": "mL/min"}, {"measurement": "Cmax", "setting": "[3]; [9]", "value": "552 ± 80.1", "unit": "ng/mL"}, {"measurement": "MRT last", "setting": "[3]; [9]", "value": "122 ± 9.6", "unit": "h"}, {"measurement": "Vd/F", "setting": "[3]; [9]", "value": "11 ± 1.2", "unit": "L"}, {"measurement": "half-life", "setting": "[3]; Cohort 5, single SC dose 6 mg, range of minimum to maximum, read-out: t1/2 range", "value": "101 to 141", "unit": "h"}, {"measurement": "Tmax", "setting": "[3]; SAD Cohorts 1-5, single SC dose, all except two individual cases", "value": "> 24", "unit": "h"}, {"measurement": "half-life", "setting": "[3]; SAD Cohorts 1-5, single SC dose, read-out: t1/2 (median) (converted)", "value": "~120", "unit": "h"}, {"measurement": "tolerated dosing exceeds the pharmacologically active dose", "setting": "[4]; 26-weeks", "value": 100, "unit": "fold"}, {"measurement": "tolerability, chronic toxicology", "setting": "[4]; repeat dosing over 26-weeks", "value": "well tolerated"}]}]}
